Key:
[1] = rats; cited from earlier work
Human PDE10A1 = Human PDE10A1 (Homo sapiens, UniProt Q9Y233); experiment: hPDE10A1 Enzyme Inhibition; format: biochemical; conditions: [3H]-cAMP substrate; read-out: hPDE10A1 IC50 Band
Experimental: hPDE10A1 Enzyme Activity: 50 μl samples of serially diluted Human PDE10A1 enzyme were incubated with 50 μl of [^3H]-cAMP for 20 minutes (at 37° C.). Reactions were carried out in Greiner 96 deep well 1 ml master-block. The enzyme was diluted in 20 mM Tris HCl pH7.4 and [^3H]-cAMP was diluted in 10 mM MgCl2, 40 mM Tris.HCl pH 7.4. The reaction was terminated by denaturing the PDE enzyme (at 70° C.) after which [^3H]-5′-AMP was converted to [^3H]-adenosine by adding 25 μl snake venom nucleotidase and incubating for 10 minutes (at 37° C.). Adenosine, being neutral, was separated from charged cAMP or AMP by the addition of 200 μl Dowex resin. Samples were shaken for 20 minutes then centrifuged for 3 minutes at 2,500 r.p.m. 50 μl of supernatant was removed and added to 200 μl of MicroScint-20 in white plates (Greiner 96-well Optiplate) and shaken for 30 minutes before reading on Perkin Elmer TopCount Scintillation Counter.
hPDE10A1 Enzyme Inhibition: To check inhibition profile 11 μl of serially diluted inhibitor was added to 50 μl of [^3H]-cAMP and 50 ul of diluted Human PDE10A1 and assay was carried out as in the enzyme activity assay. Data was analysed using Prism software (GraphPad Inc).

Human PDE10A1, sequence (Q9Y233 1-779 isoform Q9Y233-1): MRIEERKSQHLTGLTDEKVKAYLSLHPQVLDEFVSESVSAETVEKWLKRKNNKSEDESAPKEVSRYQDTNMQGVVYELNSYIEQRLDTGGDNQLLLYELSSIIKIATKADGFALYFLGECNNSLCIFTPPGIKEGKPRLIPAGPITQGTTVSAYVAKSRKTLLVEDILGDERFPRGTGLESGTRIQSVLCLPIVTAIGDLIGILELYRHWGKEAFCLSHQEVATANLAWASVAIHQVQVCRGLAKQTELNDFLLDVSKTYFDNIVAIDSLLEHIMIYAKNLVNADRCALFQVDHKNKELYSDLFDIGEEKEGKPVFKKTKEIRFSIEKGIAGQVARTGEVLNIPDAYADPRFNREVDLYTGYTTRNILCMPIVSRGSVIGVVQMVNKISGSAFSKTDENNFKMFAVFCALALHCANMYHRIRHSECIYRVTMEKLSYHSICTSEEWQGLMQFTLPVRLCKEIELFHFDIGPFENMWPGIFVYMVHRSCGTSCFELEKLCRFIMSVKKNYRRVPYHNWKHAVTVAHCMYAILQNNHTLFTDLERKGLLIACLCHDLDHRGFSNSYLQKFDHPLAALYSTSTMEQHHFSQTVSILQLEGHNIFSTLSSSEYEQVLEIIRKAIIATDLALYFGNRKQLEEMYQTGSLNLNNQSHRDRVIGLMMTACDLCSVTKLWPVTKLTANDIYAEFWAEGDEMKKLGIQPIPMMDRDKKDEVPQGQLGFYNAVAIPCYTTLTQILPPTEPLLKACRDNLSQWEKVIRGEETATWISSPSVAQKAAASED

IC50 (Human PDE10A1)	SMILES	further results
–	COc1ccc(Cc2nccc3cc(OC)c(OC)cc23)cc1OC [papaverine]	apomorphine induced stereotypies [1]: reduces; haloperidol induced catalepsy [1]: increases; rat brain dopamine levels [1]: reduces
> 0.05 µM	N#Cc1ccc(-c2ccc(OCc3ccc4ccccc4n3)cc2)c(-c2ccncc2)c1 [Example 1885, 2-(Pyridin-4-yl)-4′-(quinolin-2-ylmethoxy)biphenyl-4-carbonitrile]	melting point: 190 to 193 °C
> 0.05 µM	N#Cc1ccc(-c2ccccc2-c2ccc(OCc3ccc4ccccc4n3)cc2)cc1Cl [Example 1865]	–
> 0.05 µM	c1cc(-c2ccncc2)c(-c2ccc(OCc3ccc4ccccc4n3)cc2)c(N2CCOCC2)c1 [Example 1873, 4-(6-(pyridin-4-yl)-4′-(quinolin-2-ylmethoxy)biphenyl-2-yl)morpholine]	–
> 0.05 µM	COc1ccccc1-c1ccc(OCc2ccc3ccccc3n2)cc1 [Example 1883, 2-((2′-methoxybiphenyl-4-yloxy)methyl)quinoline]	–
> 0.05 µM	Cc1cccc(COc2ccc(-c3ccccc3-c3ccncc3)cc2)n1 [Example 1884, 2-methyl-6-((2′-(pyridin-4-yl)biphenyl-4-yloxy)methyl)pyridine]	–
≤ 0.05 µM	COc1cccc(-c2ccncc2)c1-c1ccc(OCc2ccc3ccccc3n2)cc1 [Example 385, 2-((2′-Methoxy-6′-(pyridin-4-yl)biphenyl-4-yloxy)methyl)quinoline]	–
> 0.05 µM	CCc1ccccc1-c1ccc(OCc2ccc3ccccc3n2)cc1 [Example 1875, 2-((2′-ethylbiphenyl-4-yloxy)methyl)quinoline]	–
≤ 0.05 µM	c1cc(-c2ccncc2)c(-c2ccc(OCc3ccc4ccccc4n3)cc2)c(C2OCCCO2)c1 [Example 1857, 2-((2′-(1,3-Dioxan-2-yl)-6′-(pyridin-4-yl)biphenyl-4-yloxy)methyl)quinoline]	–
≤ 0.05 µM	Clc1cccc(-c2ccncc2)c1-c1ccc(OCc2ccc3ccccc3n2)cc1 [Example 382, 2-((2′-Chloro-6′-(pyridin-4-yl)biphenyl-4-yloxy)methyl)quinoline]	–
≤ 0.05 µM	Cc1cccc(-c2ccncc2)c1-c1ccc(OCc2ccc3ccccc3n2)cc1 [Example 387, 2-(6′-Methyl-2′-pyridin-4-yl-biphenyl-4-yloxymethyl)-quinoline]	–
≤ 0.05 µM	Cc1ccc(COc2ccc(-c3ccccc3-c3ccncc3)cc2)nc1 [Example 501, 5-methyl-2-((2′-(pyridin-4-yl)biphenyl-4-yloxy)methyl)pyridine]	–
> 0.05 µM	Clc1ccc(-c2ccc(OCc3ccc4ccccc4n3)cc2)c(-c2ccncc2)c1 [Example 1876, 2-((4′-Chloro-2′-(pyridin-4-yl)biphenyl-4-yloxy)methyl)quinoline]	–
> 0.05 µM	Nc1cccc(-c2ccncc2)c1-c1ccc(OCc2ccc3ccccc3n2)cc1 [Example 1881, 6-Pyridin-4-yl-4′-(quinolin-2-ylmethoxy)-biphenyl-2-ylamine]	–
> 0.05 µM	COc1cc(-c2ccncc2)c(-c2ccc(OCc3ccc4ccccc4n3)cc2)cc1OC [Example 1862, 2-((4′,5′-dimethoxy-2′-(pyridin-4-yl)biphenyl-4-yloxy)methyl)quinoline]	–

Reference: patent US20110224204A1, “DI-SUBSTITUTED PHENYL COMPOUNDS” (priority 2008, published 2011)
